Tests used:
Type in all cases: cell-based
human TLR7 = target: T1, human TLR7 (Homo sapiens, UniProt Q9NYK1); assay: TLR7 inhibition reporter assay (HEK-Blue SEAP); conditions: HEK-Blue cells overexpressing human TLR7, gardiquimod 7.5 μM, 22 hour incubation
T1 construct: host or cells: HEK-Blue cells (HEK293-derived reporter line)
T1 sequence (Q9NYK1 27-1049): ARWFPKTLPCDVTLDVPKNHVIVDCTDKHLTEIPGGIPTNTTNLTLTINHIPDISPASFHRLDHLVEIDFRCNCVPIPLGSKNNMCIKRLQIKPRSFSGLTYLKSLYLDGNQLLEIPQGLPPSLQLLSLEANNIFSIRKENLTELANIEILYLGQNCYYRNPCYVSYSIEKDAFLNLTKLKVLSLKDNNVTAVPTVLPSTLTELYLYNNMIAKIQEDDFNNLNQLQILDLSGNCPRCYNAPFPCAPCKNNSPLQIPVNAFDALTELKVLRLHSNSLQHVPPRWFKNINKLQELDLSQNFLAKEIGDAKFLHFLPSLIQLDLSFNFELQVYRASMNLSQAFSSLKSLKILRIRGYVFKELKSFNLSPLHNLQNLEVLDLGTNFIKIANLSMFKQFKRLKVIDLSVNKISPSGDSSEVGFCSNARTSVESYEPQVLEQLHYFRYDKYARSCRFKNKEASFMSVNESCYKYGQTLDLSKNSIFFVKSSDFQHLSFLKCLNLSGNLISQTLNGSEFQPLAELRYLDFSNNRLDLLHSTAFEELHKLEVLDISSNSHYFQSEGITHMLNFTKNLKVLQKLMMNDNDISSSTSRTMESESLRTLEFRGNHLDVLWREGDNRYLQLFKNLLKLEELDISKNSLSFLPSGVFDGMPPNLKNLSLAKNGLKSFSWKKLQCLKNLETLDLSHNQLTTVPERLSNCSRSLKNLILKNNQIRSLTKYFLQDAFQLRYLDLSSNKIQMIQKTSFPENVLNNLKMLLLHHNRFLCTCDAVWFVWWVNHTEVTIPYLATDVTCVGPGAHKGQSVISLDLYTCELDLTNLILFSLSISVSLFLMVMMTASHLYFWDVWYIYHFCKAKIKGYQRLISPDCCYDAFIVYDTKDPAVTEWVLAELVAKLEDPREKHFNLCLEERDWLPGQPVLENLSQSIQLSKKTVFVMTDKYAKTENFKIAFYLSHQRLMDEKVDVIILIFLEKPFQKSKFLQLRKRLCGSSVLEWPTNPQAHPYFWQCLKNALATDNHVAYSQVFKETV
Description: (§1) TLR7/8/9 Inhibition Reporter Assays
(§2) HEK-Blue™-cells (Invivogen) overexpressing human TLR7, TLR8 or TLR9 receptors were used for screening inhibitors of these receptors using an inducible SEAP (secreted embryonic alkaline phosphatase) reporter gene under the control of the IFN-β minimal promoter fused to five NF-κB and AP-1-binding sites. Briefly, cells are seeded into Greiner 384 well plates (15000 cells per well for TLR7, 20,000 for TLR8 and 25,000 for TLR9) and then treated with test compounds in DMSO to yield a final dose response concentration range of 0.05 nM-50 μM. After a 30 minute compound pre-treatment at room temperature, the cells are then stimulated with a TLR7 ligand (gardiquimod at a final concentration of 7.5 μM), TLR8 ligand (R848 at a final concentration of 15.9 μM) or TLR9 ligand (ODN2006 at a final concentration of 5 nM) to activate NF-κB and AP-1 which induce the production of SEAP. After a 22 hour incubation at 37° C., 5% CO2, SEAP levels are determined with the addition of HEK-Blue™ Detection reagent (Invivogen), a cell culture medium that allows for detection of SEAP, according to manufacturer's specifications. The percent inhibition is determined as the % reduction in the HEK-Blue signal present in wells treated with agonist plus DMSO alone compared to wells treated with a known inhibitor.

human TLR8 = target: T2, human TLR8 (Homo sapiens, UniProt Q9NR97); assay: TLR8 inhibition reporter assay (HEK-Blue SEAP); conditions: HEK-Blue cells overexpressing human TLR8, R848 15.9 μM, 22 hour incubation
T2 construct: host or cells: HEK-Blue cells (HEK293-derived reporter line)
T2 sequence (Q9NR97 27-1041): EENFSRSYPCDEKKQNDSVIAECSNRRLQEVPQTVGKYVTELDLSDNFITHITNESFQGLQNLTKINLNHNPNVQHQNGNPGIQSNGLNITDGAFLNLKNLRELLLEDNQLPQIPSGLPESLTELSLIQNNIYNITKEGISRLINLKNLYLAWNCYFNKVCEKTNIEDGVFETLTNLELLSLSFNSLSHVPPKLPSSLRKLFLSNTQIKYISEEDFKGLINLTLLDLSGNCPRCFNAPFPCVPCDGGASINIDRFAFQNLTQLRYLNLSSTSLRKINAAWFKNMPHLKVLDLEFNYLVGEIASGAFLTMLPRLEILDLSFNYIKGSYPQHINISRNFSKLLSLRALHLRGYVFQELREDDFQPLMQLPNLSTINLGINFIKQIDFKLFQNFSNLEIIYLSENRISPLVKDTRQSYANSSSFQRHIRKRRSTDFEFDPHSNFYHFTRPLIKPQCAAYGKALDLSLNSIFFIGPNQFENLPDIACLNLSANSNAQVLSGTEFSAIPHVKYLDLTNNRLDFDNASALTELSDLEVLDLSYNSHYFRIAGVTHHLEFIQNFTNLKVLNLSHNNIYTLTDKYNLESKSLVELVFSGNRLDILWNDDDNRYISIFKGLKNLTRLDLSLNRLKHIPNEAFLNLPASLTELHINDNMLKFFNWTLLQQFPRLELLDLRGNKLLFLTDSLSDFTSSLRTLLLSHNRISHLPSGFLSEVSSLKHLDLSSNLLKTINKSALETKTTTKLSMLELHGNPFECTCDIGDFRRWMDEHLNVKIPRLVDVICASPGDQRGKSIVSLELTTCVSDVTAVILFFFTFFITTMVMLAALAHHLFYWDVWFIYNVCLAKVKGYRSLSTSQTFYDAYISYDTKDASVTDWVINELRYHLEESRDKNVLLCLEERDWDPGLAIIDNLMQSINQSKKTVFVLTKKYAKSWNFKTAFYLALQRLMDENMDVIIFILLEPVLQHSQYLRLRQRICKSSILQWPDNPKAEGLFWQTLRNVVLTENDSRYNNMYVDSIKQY
Description: as §1, §2

human TLR9 = target: T3, human TLR9 (Homo sapiens, UniProt Q9NR96); assay: TLR9 inhibition reporter assay (HEK-Blue SEAP); conditions: HEK-Blue cells overexpressing human TLR9, ODN2006 5 nM, 22 hour incubation
T3 construct: host or cells: HEK-Blue cells (HEK293-derived reporter line)
T3 sequence (Q9NR96 26-1032): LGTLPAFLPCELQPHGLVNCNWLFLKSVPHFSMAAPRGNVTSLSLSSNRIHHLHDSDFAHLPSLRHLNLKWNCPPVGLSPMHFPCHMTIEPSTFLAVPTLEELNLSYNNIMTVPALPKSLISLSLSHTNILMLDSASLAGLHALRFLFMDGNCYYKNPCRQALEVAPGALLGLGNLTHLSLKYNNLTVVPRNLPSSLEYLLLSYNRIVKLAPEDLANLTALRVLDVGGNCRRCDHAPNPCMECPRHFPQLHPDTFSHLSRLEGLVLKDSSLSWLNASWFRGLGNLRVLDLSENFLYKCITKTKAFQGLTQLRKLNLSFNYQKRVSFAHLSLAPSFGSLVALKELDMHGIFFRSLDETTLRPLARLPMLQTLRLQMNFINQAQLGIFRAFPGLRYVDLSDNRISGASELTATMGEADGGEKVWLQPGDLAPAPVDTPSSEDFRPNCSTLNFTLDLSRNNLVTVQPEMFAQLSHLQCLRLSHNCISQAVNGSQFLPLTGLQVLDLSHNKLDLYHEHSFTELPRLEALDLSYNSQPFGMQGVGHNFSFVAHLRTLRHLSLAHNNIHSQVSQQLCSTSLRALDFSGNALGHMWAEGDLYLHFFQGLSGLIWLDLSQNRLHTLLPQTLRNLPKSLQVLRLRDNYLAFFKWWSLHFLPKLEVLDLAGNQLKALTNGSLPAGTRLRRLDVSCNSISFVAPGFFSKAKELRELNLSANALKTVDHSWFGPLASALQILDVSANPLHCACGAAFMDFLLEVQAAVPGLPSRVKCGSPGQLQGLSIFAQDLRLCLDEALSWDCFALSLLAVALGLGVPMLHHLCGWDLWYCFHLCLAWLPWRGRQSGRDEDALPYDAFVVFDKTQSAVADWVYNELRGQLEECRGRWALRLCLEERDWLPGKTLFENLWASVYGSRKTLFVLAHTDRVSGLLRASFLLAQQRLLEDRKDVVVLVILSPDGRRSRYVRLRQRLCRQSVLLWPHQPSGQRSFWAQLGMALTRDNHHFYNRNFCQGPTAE
Description: as §1, §2

Compound | IC50 (human TLR7) | IC50 (human TLR8) | IC50 (human TLR9)
COc1cc(-c2[nH]c3ccc(C4CCN(C(=O)CCCCCCCCCCCCCCCCC(=O)N5CCC(c6ccc7[nH]c(-c8cc(OC)c9ncnn9c8)c(C(C)C)c7c6)CC5)CC4)cc3c2C(C)C)cn2ncnc12 [Comparator Compound C1, 1,18-bis(4-(3-isopropyl-2-(8-methoxy-[1,2,4]triazolo[1,5-a]pyridin-6-yl)-1H-indol-5-yl)piperidin-1-yl)octadecane-1,18-dione, reference compound] | > 3130 nM | ≥ 3130 nM | > 50000 nM
COc1cc(-c2[nH]c3ccc(C4CCN(C(=O)CCCCCCCCCCCCCCCCCC(=O)N5CCC(c6ccc7[nH]c(-c8cc(OC)c9ncnn9c8)c(C(C)C)c7c6)CC5)CC4)cc3c2C(C)C)cn2ncnc12 [Comparator Compound C3, reference compound] | > 3130 nM | > 3130 nM | > 50000 nM
COc1cc(-c2[nH]c3ccc(C4CCN(CCNC(C)=O)CC4)cc3c2C(C)C)cn2ncnc12 [Comparator Compound C5, N-(2-(4-(3-isopropyl-2-(8-methoxy-[1,2,4]triazolo[1,5-a]pyridin-6-yl)-1H-indol-5-yl)piperidin-1-yl)ethyl)acetamide, reference compound] | 0.95 nM | 1.8 nM | 3570 nM
COc1cc(-c2[nH]c3ccc(C4CCN(CCNC(=O)CCCCCCCCCCCCC(=O)NCCN5CCC(c6ccc7[nH]c(-c8cc(OC)c9ncnn9c8)c(C(C)C)c7c6)CC5)CC4)cc3c2C(C)C)cn2ncnc12 [Example 2, N1,N14-bis(2-(4-(3-isopropyl-2-(8-methoxy-[1,2,4]triazolo[1,5-a]pyridin-6-yl)-1H-indol-5-yl)piperidin-1-yl)ethyl)tetradecanediamide] | 1.9 nM | 1.6 nM | 149 nM

Molecules with a lower IC50 (human TLR7), results first:

IC50 (human TLR7) | IC50 (human TLR8) | IC50 (human TLR9) | Compound
0.6 nM | 2.1 nM | 1970 nM | COc1cc(-c2[nH]c3ccc(C4CCN(CCN)CC4)cc3c2C(C)C)cn2ncnc12 [Comparator Compound C4, 2-(4-(3-isopropyl-2-(8-methoxy-[1,2,4]triazolo[1,5-a]pyridin-6-yl)-1H-indol-5-yl)piperidin-1-yl)ethan-1-amine, reference compound]
0.92 nM | 1.4 nM | 121 nM | COc1cc(-c2[nH]c3ccc(C4CCN(CCNC(=O)CCCCCCCCCCCC(=O)NCCN5CCC(c6ccc7[nH]c(-c8cc(OC)c9ncnn9c8)c(C(C)C)c7c6)CC5)CC4)cc3c2C(C)C)cn2ncnc12 [Example 1, N1,N13-bis(2-(4-(3-isopropyl-2-(8-methoxy-[1,2,4]triazolo[1,5-a]pyridin-6-yl)-1H-indol-5-yl)piperidin-1-yl)ethyl)tridecanediamide]
0.31 nM | 0.32 nM | 99 nM | COc1cc(-c2[nH]c3ccc(C4CCN(CCNC(=O)CCCCCCCCCCC(=O)NCCN5CCC(c6ccc7[nH]c(-c8cc(OC)c9ncnn9c8)c(C(C)C)c7c6)CC5)CC4)cc3c2C(C)C)cn2ncnc12 [Example 3, N1,N12-bis(2-(4-(3-isopropyl-2-(8-methoxy-[1,2,4]triazolo[1,5-a]pyridin-6-yl)-1H-indol-5-yl)piperidin-1-yl)ethyl)dodecanediamide]
0.25 nM | 0.22 nM | 94 nM | COc1cc(-c2[nH]c3ccc(C4CCN(CCNC(=O)CCCCCCCCCC(=O)NCCN5CCC(c6ccc7[nH]c(-c8cc(OC)c9ncnn9c8)c(C(C)C)c7c6)CC5)CC4)cc3c2C(C)C)cn2ncnc12 [Example 4, N1,N11-bis(2-(4-(3-isopropyl-2-(8-methoxy-[1,2,4]triazolo[1,5-a]pyridin-6-yl)-1H-indol-5-yl)piperidin-1-yl)ethyl)undecanediamide]
0.15 nM | 0.18 nM | 140 nM | COc1cc(-c2[nH]c3ccc(C4CCN(CCNC(=O)CCCCCCCC(=O)NCCN5CCC(c6ccc7[nH]c(-c8cc(OC)c9ncnn9c8)c(C(C)C)c7c6)CC5)CC4)cc3c2C(C)C)cn2ncnc12 [Example 5, N1,N9-bis(2-(4-(3-isopropyl-2-(8-methoxy-[1,2,4]triazolo[1,5-a]pyridin-6-yl)-1H-indol-5-yl)piperidin-1-yl)ethyl)nonanediamide]
